Test results taken from PubChem BioAssay AID618 (Sanford-Burnham Center for Chemical Genomics, 2007).
Active and inactive are the calls of the source. How the calls were made is not given here.

Test system: MT1-MMP promoter luciferase reporter cells, luminescence
Assay: MT1-MMP gene expression reporter suppression – cell-based, luciferase reporter, luminescence (AID 618);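 further: actives suppress MT1-MMP promoter-driven transcription so potencies describe inhibitors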

Row | SMILES | EC50
1 | O=C(NC1=NCCS1)c1cc2ccccc2o1 | 6520 nM
2 | CCOc1ccc(C(=O)NCCc2ccccc2)cc1 | 2560 nM
3 | COc1ccc(C(=O)Nc2ccc3c(c2)OCCO3)cc1 | 2980 nM
4 | CN1CCN(CC(=O)N2CCn3c4c(c5cc(C6CCCCC6)ccc53)CCCC42)CC1 (stereo not given) | 12000 nM
5 | Cc1cc(-c2csc(N)n2)c(C)n1CCc1ccccc1 | 13200 nM
6 | Cc1ccc(-c2nc(N/N=C/c3ccncc3)c3ccccc3n2)cc1 | 570 nM
7 | Cc1cc(C(=O)CSc2nnc(-c3cccs3)o2)c(C)n1-c1ccccc1 | 7720 nM
8 | CCCc1ccc(-c2ccc(F)c(N)c2)nc1 | 660 nM
9 | Fc1ccccc1OCCSc1nnnn1-c1ccccc1 | 12700 nM
10 | CCN(CC)c1ccc2cc(NC(=O)CCC(=O)O)c(=O)oc2c1 | 670 nM
11 | O=C(COc1ccc(CO)cc1Cl)Nc1ccc(F)cc1 | 3020 nM
12 | c1ccc(C2=NNC(=NC3CC3)SC2)cc1 | 1700 nM
13 | COC(=O)c1ccc(-c2nc(-c3cccs3)no2)cc1 | 1120 nM
14 | CC(C)(C)c1ccc(OCC(O)CSc2ncn[nH]2)cc1 (stereo not given) | 16900 nM
15 | CCCOc1ccc(-c2nnc(-c3cccs3)o2)cc1 | 4370 nM
16 | O=C(Nc1nccs1)c1cc2c(s1)CCCCC2 | 550 nM
17 | Cc1cc(C)c2c(N)c(C(=O)Nc3ncc(C)s3)sc2n1 | 210 nM
18 | Cc1ccnc(Nc2nc3ccccc3o2)n1 | 13000 nM
19 | COc1cccc(Cn2c(NCc3cccnc3)nc3c2c(=O)n(C)c(=O)n3C)c1 | 250 nM
20 | CCCCOc1ccc(C(=O)C(CN2CCOCC2)c2ccccc2)cc1 (stereo not given) | 13000 nM
21 | Cc1ccc(C(=O)COC(=O)c2cccs2)cc1 | 18600 nM
22 | O=C(O)CCSc1nc2ccccc2s1 | 15400 nM
23 | Cc1nc(NC2=NCN(CCCN3CCOCC3)CN2)nc2c(C)cccc12 | 34300 nM
24 | Cc1c(C(=O)NCC2CCCO2)oc2ccc3c(c12)C(=O)CC(C)(C)O3 (stereo not given) | 12500 nM
25 | Cc1ccc(-c2nc3cc(C)ccc3o2)cc1 | 2320 nM
26 | Cc1nn2cc(-c3ccccc3)nc2s1 | 12300 nM

Row | SMILES | EC50
27 | C/C(=N/NC(=O)c1cc(C2CC2)[nH]n1)c1cccs1 | 1770 nM
28 | COc1ccc(-c2nc3ccccc3[nH]2)cc1 | 2720 nM
29 | O=C1C(c2ccnc3ccccc23)=C(O)c2ccccc21 | > 50000 nM (inactive)
30 | CCc1ccc(NC(=O)c2noc3c2CCC3)cc1 | 4000 nM
31 | O=C(Nc1ccccn1)c1cc2ccccc2o1 | > 50000 nM (inactive)
32 | Cc1oncc1C(=O)Nc1ccc(C(F)(F)F)cc1 | 5650 nM
33 | CC(C)(C)C(=O)N1CCc2cc(-c3csc(N)n3)ccc21 | 1360 nM
34 | COc1ccccc1-c1cc(C(F)(F)F)nc(S(=O)(=O)CCCC(=O)N2CCOCC2)n1 | 22000 nM
35 | O=S(=O)(c1ccc(Cl)cc1)c1snnc1-c1ccccc1 | 13200 nM
36 | COc1ccc(C(=O)Nn2c(SCC(=O)N3CCC(C)CC3)nc3ccccc3c2=O)cc1 | 1980 nM
37 | CC(=O)Nc1ccc(SCC(=O)c2cc(C)n(Cc3cccs3)c2C)cc1 | 1220 nM
38 | Cc1ccc(O)c(/C=N/NC(=O)C2=NNC(c3ccccc3)(c3ccccc3)C2)c1 | 19000 nM
39 | COc1ccc2nc(-c3ccc(N)cc3)[nH]c2c1 | > 50000 nM (inactive)
40 | O=C(Nc1cccc(O)c1)c1noc2c1CCCCC2 | 230 nM
41 | O=C(NCc1cccs1)c1nc2c(nnn2Cc2ccccc2Cl)c(=O)[nH]1 | > 50000 nM (inactive)
42 | O=C(O)CSCC(=O)Nc1ccc(C2CCCCC2)cc1 | 580 nM
43 | Cc1ccc(NC(=O)c2ccc3c(c2)OCCO3)cc1 | 1710 nM
44 | Cc1ccc(C(=O)N/N=C/c2ccc([N+](=O)[O-])s2)cc1 | 300 nM
45 | Cc1csc(NC(=O)c2cc3c(s2)CCCC3)n1 | 1260 nM
46 | Cc1ccc(-c2nc(-c3ccccc3)no2)cc1 | 2870 nM
47 | Cc1ccc(-c2csc3ncnc(Sc4nnc(CN5CCCCCC5=O)o4)c23)cc1 | 15000 nM
48 | COc1cccc(-c2nc(-c3ccccn3)no2)c1 | 660 nM
49 | COC(=O)c1nn(-c2ccc3c(c2)CCN3C(C)=O)cc1O | 610 nM
50 | CCCN1C=CC(=C2C(=O)c3ccccc3C2=O)C=C1 | < 98 nM
51 | CN(C)c1nc(-c2ccccn2)nnc1-c1ccccc1 | > 50000 nM (inactive)
52 | CCOc1ccc2nc(NC(=O)c3ccoc3C)sc2c1 | 970 nM

Row | SMILES | EC50
53 | O=C(NC1=NC2CCCCC2N1)c1ccccc1 (stereo not given) | 12900 nM
54 | Cc1ccccc1NC(=O)c1cnc2ccccn2c1=O | 2130 nM
55 | Cc1ccc(-c2nc3cc(N)ccc3o2)cc1 | 2910 nM
56 | O=C(CCCOc1ccccc1)N1CCCCC1 | 6960 nM
57 | COc1ccc(O)c(C(=O)CC(=O)c2ccccc2)c1 | 2220 nM
58 | Clc1ccccc1OCc1nc(-c2ccccn2)no1 | 6650 nM
59 | Clc1c(CSc2nc3ccccc3o2)nc2ccccn12 | 12100 nM
60 | Cc1cc(C)c2c(N)c(C(=O)Nc3nccs3)sc2n1 | 1320 nM
61 | O=C(Nc1ccc(N2CCCC2)c(Cl)c1)c1ccco1 | 2680 nM
62 | O=c1c2c(nc3cc(-c4ccc(F)cc4)[nH]n13)CCCC2 | 6480 nM
63 | O=C(N/N=C/c1ccc([N+](=O)[O-])s1)c1ccccc1Br | 2800 nM
64 | O=C1/C(=C/Nc2ccc3c(c2)OCO3)CCc2ccccc21 | 810 nM
65 | O=C(Nc1nc2c(s1)CCCC2)C1COc2ccccc2O1 (stereo not given) | 2400 nM
66 | CCc1ccc(-c2nnn(CCC(=O)OC)n2)cc1 | 2020 nM
67 | O=C(CCCc1ccccc1)c1ccc2c(c1)OCCO2 | 280 nM
68 | COc1ccc(C(=O)Nc2nnc(-c3ccco3)s2)cc1 | 1730 nM
69 | Cc1ccc(-n2nc3ccc(N)cc3n2)cc1 | 13600 nM
70 | O=c1c2sc(-c3ccccc3)cc2nc2n1CCC2 | 4050 nM
71 | O=C1c2ccccc2C(=O)C1c1ccnc2ccccc12 | 1020 nM
72 | CC(C)(C)c1ccc(-c2noc(CCC(N)=O)n2)cc1 | 130 nM
73 | CCOc1ccc(NC(=O)c2cnsn2)cc1 | 8780 nM
74 | COCCn1c(C)cc(C2=NNC(=Nc3ccccc3)SC2)c1C | 5300 nM
75 | O=C1C(Cl)=C(N2CCCCC2)C(=O)C(Cl)=C1c1cnc(N2CCCCC2)s1 | 4530 nM
76 | Cc1nc2cc(-c3cccc(F)c3)nn2c(C)c1CCC(=O)NC(C)CCc1ccco1 (stereo not given) | 1120 nM
77 | COc1cc(SC)ccc1C(=O)Nc1ccc2c(c1)OCCO2 | 13200 nM
78 | O=C1C(N2CCOCC2)=C(n2nnc3ccccc32)C(=O)c2ccccc21 | 10500 nM

Row | SMILES | EC50
79 | CC(=O)N(Cc1ccc(F)cc1)C1=C(NCCc2ccccc2)C(=O)c2ccccc2C1=O | 12200 nM
80 | COc1cccc(C(=O)Nc2nc3ccccc3[nH]2)c1 | 960 nM
81 | COC(=O)c1nn(-c2ccc(-c3ccccc3)cc2)cc1O | 1480 nM
82 | O=C(Nc1ccc(CN2CCOCC2)cc1)c1cc2ccccn2n1 | 3350 nM
83 | O=C(Nc1ccc(NC(=O)c2ccco2)nc1)c1ccccn1 | 9010 nM
84 | COC(=O)CCn1nnc(-c2ccc(C(C)C)cc2)n1 | 110 nM
85 | N#Cc1c(NC(=O)CSc2ncn[nH]2)sc2c1CCCC2 | 730 nM
86 | CCOC(=O)C1CCCCN1C(=O)CCc1c(C)nc2cc(-c3ccccc3)nn2c1C (stereo not given) | 1150 nM
87 | CCCC(=O)Nc1ccc(-c2nc3cc(C)ccc3o2)cc1 | 12000 nM
88 | COc1cc([N+](=O)[O-])ccc1N/C=C/C(=O)c1cccs1 | 2050 nM
89 | CC(=O)N(/N=C1\Sc2ccccc2C1=O)c1ccc(C)cc1C | 1970 nM
90 | COc1nc(C)ccc1-c1noc(-c2ccco2)n1 | 10900 nM
91 | Nc1ccc2nc(-c3ccccc3)sc2c1 | 1910 nM
92 | Cc1ccc(C(=O)Nc2cccc(C(=O)O)c2)cc1 | 660 nM
93 | CCc1nnc(NC(=O)c2ccc(OC)cc2OC)s1 | 6080 nM
94 | COc1ccc(N=CC2=C(O)c3ccccc3C2=O)c(OC)c1 | 790 nM
95 | CCCCCc1ccc(-c2ccc(C(=O)O)cc2)nc1 | 3530 nM
96 | c1ccc(OCCSc2nnc3sc4ccccc4n23)cc1 | 1430 nM
97 | C=CCn1c(C)cc(C(=O)CSc2nc3ccccc3[nH]2)c1C | 2640 nM
98 | Oc1c(CN2CCc3ccccc3C2)cc(Cl)c2cccnc12 | 5810 nM
99 | O=C(c1c(Cl)nc2sccn12)N1CCN(c2cccc(Cl)c2)CC1 | 48600 nM
100 | Cc1ccoc1C(=O)Nc1ccc(CC(=O)O)cc1 | 420 nM
101 | COc1ccc(O)c(C(=O)CC(=O)c2ccc(F)cc2)c1 | 570 nM
102 | Cc1ccc2nc(-c3cc(N)cc(N)c3)oc2c1 | 1570 nM
103 | CN(C)c1ccc(NC(=S)c2ccccn2)cc1 | 400 nM
104 | Cc1cc(NC(=O)CSc2nc(-c3ccco3)cc(C(F)(F)F)n2)no1 | > 50000 nM (inactive)

Row | SMILES | EC50
105 | Cc1ccc(CNc2nc3ccccc3s2)s1 | 1670 nM
106 | COCCn1c(C)cc(C(=O)CSc2ccc(NC(C)=O)cc2)c1C | 8540 nM
107 | O=C1c2ccccc2S(=O)(=O)N1Cc1nc2ccccc2s1 | 3060 nM
108 | CN1/C(=C/C(=O)c2nc(S(C)(=O)=O)ncc2Cl)C(C)(C)c2ccccc21 | 16100 nM
109 | COc1ccc(-c2cn3nc4c(nc3n2)CCCC4)cc1 | 590 nM
110 | Cc1cc(N2CCOCC2)n2ncc(-c3ccccc3)c2n1 | 3570 nM
111 | Cc1cc(N)n2nc(-c3ccccc3)cc2n1 | 34400 nM
112 | CC(C)c1ccc2oc(-c3ccc(N)cc3)nc2c1 | 1660 nM
113 | Brc1ccc(-c2nc(-c3ccccn3)no2)o1 | 2140 nM
114 | CC(=O)Nc1ccc(OC(=O)N2CCCCC2)cc1 | > 50000 nM (inactive)
115 | COc1cccc(C(=O)/C=C/Nc2cccc(O)c2)c1 | 180 nM
116 | CC1CC(C)(C)Nc2ccc(OC(=O)c3ccco3)cc21 (stereo not given) | 3010 nM
117 | COc1ccc(C(=O)/C=C/Nc2ccccn2)cc1 | 190 nM
118 | Cc1ccc2nc(-c3cccc(N)c3)oc2c1 | 3710 nM
119 | Cc1csc(NC(=O)C2COc3ccccc3O2)n1 (stereo not given) | 1640 nM
120 | Cc1ccc(C(=O)Nc2cccc(C(=O)O)c2)cc1S(=O)(=O)N1CCCCC1 | 7250 nM
121 | CCOC(=O)c1sc2nc3c(cc2c1N)COC(C(C)C)C3 (stereo not given) | 1620 nM
122 | Cc1cc(C(=O)CSc2nc3ccccc3[nH]2)c(C)n1CC1CCCO1 (stereo not given) | 3860 nM
123 | CC(=O)c1sc(NC(=O)C2COc3ccccc3O2)nc1C (stereo not given) | 5390 nM
124 | Nc1ccc(C(=O)Nc2nc3ccccc3s2)cc1 | 3470 nM
125 | Cc1ccc(NC(=O)N2CCc3ccccc32)cc1 | 3380 nM
126 | CN1CCN(c2ncnc3c2cnn3-c2ccc(Cl)cc2)CC1 | 3900 nM
127 | Cc1ccccc1Cn1nnc(-c2cccc(C(=O)O)c2)n1 | 18000 nM
128 | CCc1cc2c(=O)n(Cc3ccco3)c(SCc3c(C)noc3C)nc2s1 | > 50000 nM (inactive)
129 | CCCCc1ccc(-c2nc(-c3ccncc3)no2)cc1 | 13400 nM
130 | Cc1ccc(-c2nnc(SCC(=O)Nc3ccccc3F)o2)cc1 | 600 nM
